Data reported in PMC9329436, “Optimization of the 4-anilinoquin(az)oline scaffold as epidermal growth factor receptor (EGFR) inhibitors for chordoma utilizing a toxicology profiling assay platform” (Scientific Reports, 2022).
Like-named read-outs stand apart in the source and are kept apart here.

Experiments:
Assay type in all cases: biochemical
[1] = target: 320 wild-type protein kinases (Homo sapiens, UniProt P49759); conditions: singlicate
Text: (§1) Table S4. Profiling of two compounds at two concentrations against 320 wild-type protein kinases; singlicate measurement; Residual activities (% of control).

[2] = target: 320 wild-type protein kinases (Homo sapiens, UniProt Q15349); conditions: kinase RPS6KA2, singlicate
320 wild-type protein kinases (Homo sapiens, UniProt Q15349), sequence (Q15349 whole entry): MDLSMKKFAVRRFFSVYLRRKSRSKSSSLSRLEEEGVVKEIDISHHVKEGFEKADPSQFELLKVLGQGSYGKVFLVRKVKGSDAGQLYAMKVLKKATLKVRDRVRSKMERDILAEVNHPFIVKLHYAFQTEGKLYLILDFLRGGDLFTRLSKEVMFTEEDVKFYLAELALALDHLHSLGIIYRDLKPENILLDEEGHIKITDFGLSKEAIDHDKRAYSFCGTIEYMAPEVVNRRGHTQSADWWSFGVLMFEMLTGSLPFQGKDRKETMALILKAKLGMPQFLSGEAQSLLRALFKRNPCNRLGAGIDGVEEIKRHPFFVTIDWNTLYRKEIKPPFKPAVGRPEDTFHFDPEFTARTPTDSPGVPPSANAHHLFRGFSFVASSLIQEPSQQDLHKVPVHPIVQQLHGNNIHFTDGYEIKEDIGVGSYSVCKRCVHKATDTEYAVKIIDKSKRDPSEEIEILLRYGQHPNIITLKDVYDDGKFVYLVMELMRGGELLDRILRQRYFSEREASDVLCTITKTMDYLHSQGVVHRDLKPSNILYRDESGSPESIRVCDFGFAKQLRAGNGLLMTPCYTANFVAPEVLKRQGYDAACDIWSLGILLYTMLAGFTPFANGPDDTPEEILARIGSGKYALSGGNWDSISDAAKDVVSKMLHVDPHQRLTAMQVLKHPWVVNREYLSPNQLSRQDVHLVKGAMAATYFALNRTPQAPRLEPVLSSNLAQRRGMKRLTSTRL
Text: as §1

[3] = target: 320 wild-type protein kinases (Homo sapiens, UniProt Q00535); conditions: singlicate
320 wild-type protein kinases (Homo sapiens, UniProt Q00535), sequence (Q00535 whole entry): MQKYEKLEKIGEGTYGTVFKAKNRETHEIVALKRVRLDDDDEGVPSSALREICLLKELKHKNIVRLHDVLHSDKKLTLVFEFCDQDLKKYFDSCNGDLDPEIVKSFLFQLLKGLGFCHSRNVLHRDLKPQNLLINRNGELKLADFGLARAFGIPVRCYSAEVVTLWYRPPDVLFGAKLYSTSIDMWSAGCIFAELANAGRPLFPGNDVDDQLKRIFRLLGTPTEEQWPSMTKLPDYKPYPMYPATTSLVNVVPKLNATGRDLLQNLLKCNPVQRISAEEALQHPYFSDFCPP
Text: as §1

[4] = target: 320 wild-type protein kinases (Homo sapiens, UniProt Q9BWU1); conditions: CDK19/CycC, singlicate
320 wild-type protein kinases (Homo sapiens, UniProt Q9BWU1), sequence (Q9BWU1 whole entry): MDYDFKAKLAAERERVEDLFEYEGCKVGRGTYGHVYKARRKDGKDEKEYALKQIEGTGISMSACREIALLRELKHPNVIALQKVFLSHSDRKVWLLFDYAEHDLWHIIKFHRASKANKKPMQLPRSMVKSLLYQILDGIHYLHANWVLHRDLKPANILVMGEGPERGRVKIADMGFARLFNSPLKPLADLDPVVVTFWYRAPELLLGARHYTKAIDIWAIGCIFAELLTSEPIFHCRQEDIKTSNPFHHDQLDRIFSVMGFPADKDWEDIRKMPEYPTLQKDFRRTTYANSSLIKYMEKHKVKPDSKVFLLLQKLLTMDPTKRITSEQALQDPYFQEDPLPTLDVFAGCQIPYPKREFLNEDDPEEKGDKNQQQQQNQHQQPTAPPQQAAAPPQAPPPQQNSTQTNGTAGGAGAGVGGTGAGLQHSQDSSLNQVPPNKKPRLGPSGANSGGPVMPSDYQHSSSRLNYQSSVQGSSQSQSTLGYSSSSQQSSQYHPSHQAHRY
Text: as §1

[5] = target: T1, 320 wild-type protein kinases (Homo sapiens, UniProt Q9UEE5); conditions: kinase STK17A, singlicate
T1 sequence (Q9UEE5 1-414): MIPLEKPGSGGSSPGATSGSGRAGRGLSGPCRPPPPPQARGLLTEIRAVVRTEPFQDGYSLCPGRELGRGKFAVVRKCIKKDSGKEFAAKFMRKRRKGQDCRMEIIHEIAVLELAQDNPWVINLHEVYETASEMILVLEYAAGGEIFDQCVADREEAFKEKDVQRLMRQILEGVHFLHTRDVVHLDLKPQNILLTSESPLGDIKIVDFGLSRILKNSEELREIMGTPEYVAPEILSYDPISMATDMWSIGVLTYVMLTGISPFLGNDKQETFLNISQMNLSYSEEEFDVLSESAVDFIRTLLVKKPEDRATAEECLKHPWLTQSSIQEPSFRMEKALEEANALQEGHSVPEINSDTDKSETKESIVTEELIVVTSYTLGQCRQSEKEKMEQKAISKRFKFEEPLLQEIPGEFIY
Text: as §1

[6] = target: 320 wild-type protein kinases (Homo sapiens, UniProt Q9NYY3); conditions: kinase SNK, singlicate
320 wild-type protein kinases (Homo sapiens, UniProt Q9NYY3), sequence (Q9NYY3 whole entry): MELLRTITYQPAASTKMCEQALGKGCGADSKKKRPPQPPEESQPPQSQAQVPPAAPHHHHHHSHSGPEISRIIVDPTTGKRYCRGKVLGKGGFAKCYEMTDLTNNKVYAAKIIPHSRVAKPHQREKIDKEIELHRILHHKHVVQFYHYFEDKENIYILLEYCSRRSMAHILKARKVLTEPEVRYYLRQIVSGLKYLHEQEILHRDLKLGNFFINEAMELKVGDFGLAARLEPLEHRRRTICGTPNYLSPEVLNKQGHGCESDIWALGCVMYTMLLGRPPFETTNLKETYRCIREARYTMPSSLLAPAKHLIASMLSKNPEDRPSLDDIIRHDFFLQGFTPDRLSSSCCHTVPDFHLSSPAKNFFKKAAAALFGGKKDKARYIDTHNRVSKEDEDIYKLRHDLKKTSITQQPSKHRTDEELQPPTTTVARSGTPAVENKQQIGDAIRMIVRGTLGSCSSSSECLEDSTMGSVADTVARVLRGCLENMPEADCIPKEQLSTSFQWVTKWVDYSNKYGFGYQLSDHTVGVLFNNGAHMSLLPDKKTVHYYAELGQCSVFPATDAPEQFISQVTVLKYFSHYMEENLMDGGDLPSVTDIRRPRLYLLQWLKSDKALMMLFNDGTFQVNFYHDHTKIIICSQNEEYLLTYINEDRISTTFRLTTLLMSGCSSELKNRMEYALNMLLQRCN
Text: as §1

[7] = target: T2, 320 wild-type protein kinases (Homo sapiens, UniProt Q8TDC3); conditions: singlicate
T2 sequence (Q8TDC3 1-778): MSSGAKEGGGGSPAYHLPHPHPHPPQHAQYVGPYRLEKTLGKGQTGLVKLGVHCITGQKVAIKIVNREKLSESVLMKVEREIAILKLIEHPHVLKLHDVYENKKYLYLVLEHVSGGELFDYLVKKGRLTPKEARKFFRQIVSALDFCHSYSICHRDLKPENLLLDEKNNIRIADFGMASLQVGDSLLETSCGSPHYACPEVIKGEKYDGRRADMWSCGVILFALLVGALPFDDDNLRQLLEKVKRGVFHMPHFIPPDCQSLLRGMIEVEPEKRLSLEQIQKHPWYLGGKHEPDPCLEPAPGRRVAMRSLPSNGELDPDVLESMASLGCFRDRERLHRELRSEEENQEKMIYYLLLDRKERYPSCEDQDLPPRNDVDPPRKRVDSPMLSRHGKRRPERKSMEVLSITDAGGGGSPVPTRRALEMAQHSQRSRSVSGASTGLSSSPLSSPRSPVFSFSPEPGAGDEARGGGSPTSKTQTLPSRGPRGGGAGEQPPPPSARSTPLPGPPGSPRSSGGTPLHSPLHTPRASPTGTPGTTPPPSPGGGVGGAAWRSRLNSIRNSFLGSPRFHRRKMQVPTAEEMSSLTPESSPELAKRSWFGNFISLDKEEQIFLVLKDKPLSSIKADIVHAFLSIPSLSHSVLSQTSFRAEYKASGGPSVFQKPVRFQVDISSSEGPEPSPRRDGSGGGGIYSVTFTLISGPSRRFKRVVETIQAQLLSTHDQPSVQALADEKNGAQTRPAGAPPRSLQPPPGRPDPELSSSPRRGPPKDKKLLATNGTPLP
Text: as §1

[8] = target: 320 wild-type protein kinases (Homo sapiens, UniProt Q05397); conditions: singlicate
320 wild-type protein kinases (Homo sapiens, UniProt Q05397), sequence (Q05397 whole entry): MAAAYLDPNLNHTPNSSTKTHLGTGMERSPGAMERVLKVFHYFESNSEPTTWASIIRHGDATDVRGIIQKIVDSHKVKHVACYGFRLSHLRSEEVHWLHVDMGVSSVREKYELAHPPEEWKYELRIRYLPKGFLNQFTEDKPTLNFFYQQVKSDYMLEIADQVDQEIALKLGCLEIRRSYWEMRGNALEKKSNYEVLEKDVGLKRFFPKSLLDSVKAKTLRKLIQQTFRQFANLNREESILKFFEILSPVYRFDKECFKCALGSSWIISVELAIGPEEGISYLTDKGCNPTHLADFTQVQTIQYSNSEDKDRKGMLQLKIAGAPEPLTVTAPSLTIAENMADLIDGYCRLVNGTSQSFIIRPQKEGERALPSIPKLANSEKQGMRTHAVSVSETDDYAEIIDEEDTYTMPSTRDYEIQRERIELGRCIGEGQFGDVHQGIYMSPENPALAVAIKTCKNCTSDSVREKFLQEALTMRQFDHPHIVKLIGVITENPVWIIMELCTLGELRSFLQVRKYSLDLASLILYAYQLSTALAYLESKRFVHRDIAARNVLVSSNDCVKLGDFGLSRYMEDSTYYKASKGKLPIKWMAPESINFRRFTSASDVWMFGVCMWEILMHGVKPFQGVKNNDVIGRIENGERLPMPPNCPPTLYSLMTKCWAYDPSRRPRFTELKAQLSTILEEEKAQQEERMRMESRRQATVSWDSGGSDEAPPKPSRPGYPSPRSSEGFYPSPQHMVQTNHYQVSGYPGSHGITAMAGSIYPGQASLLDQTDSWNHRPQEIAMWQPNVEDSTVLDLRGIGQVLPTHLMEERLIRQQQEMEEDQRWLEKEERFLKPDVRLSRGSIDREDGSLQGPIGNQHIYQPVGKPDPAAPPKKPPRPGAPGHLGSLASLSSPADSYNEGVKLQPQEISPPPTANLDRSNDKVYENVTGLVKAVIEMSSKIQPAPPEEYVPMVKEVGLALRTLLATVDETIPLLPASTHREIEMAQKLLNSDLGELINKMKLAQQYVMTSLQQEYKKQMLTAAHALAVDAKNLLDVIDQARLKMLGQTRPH
Text: as §1

[9] = target: 320 wild-type protein kinases (Homo sapiens, UniProt P27037); conditions: ACV-R2A, singlicate
320 wild-type protein kinases (Homo sapiens, UniProt P27037), sequence (P27037 20-513): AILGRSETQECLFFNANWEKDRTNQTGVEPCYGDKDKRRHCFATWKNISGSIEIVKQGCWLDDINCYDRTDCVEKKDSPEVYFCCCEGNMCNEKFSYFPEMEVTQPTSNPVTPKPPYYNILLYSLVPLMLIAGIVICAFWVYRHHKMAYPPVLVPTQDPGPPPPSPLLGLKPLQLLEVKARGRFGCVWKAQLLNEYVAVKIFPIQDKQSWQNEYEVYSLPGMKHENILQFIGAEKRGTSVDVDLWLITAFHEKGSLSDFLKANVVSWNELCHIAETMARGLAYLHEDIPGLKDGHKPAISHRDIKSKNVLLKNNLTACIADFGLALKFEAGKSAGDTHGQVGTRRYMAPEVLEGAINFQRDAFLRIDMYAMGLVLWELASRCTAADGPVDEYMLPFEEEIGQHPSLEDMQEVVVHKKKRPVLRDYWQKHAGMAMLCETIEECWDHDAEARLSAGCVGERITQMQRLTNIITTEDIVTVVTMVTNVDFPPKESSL
Text: as §1

[10] = target: T3, 320 wild-type protein kinases (Homo sapiens, UniProt P45985); conditions: singlicate
T3 sequence (P45985 1-399): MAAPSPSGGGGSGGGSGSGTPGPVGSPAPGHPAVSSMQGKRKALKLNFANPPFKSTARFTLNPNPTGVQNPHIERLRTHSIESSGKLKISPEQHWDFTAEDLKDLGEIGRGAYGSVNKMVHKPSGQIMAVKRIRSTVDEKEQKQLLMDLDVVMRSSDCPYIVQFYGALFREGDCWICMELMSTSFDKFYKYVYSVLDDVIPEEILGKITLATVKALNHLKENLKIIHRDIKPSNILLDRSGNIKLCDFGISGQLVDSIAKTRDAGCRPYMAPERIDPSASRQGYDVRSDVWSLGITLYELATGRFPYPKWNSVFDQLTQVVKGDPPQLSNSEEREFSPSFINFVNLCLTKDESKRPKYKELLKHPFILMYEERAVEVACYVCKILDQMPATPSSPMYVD
Text: as §1

320 wild-type protein kinases (Homo sapiens, UniProt P49759), sequence (P49759 whole entry): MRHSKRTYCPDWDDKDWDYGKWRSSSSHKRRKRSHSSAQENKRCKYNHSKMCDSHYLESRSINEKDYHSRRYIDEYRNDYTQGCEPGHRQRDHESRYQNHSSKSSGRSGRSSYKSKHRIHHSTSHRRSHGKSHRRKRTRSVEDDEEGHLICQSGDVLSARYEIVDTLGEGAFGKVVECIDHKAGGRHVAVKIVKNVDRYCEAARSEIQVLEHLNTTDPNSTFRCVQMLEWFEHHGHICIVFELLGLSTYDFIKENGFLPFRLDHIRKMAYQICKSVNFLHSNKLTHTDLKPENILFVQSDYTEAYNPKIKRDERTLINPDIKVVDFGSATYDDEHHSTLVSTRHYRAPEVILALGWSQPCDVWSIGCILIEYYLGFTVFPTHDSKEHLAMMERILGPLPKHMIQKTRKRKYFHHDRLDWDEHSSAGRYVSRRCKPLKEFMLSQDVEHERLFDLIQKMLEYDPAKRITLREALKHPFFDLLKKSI

## C#Cc1cc(Nc2ncnc3cc(I)ccc23)ccc1Cl [Compound 41]
[1]; CLK1, 1.0E-06 M
  Residual activity: 89 % of control
[1]; CLK1, 1.0E-07 M
  Residual activity: 89 % of control
[2]; assay conc. 1.0E-06 M
  Residual activity, RPS6KA2: 94 % of control
[2]; assay conc. 1.0E-07 M
  Residual activity, RPS6KA2: 97 % of control
[3]; CDK5/p25NCK, 1.0E-06 M
  Residual activity: 100 % of control
[3]; CDK5/p25NCK, 1.0E-07 M
  Residual activity: 119 % of control
[3]; CDK5/p35NCK, 1.0E-06 M
  Residual activity: 86 % of control
[3]; CDK5/p35NCK, 1.0E-07 M
  Residual activity: 87 % of control
[4]; 1.0E-06 M
  Residual activity: 93 % of control
[4]; 1.0E-07 M
  Residual activity: 91 % of control
[5]; assay conc. 1.0E-06 M
  Residual activity, STK17A: 103 % of control
[5]; assay conc. 1.0E-07 M
  Residual activity, STK17A: 104 % of control
[6]; assay conc. 1.0E-06 M
  Residual activity, SNK: 89 % of control
[6]; assay conc. 1.0E-07 M
  Residual activity, SNK: 97 % of control
[7]; BRSK1, 1.0E-06 M
  Residual activity: 91 % of control
[7]; BRSK1, 1.0E-07 M
  Residual activity: 100 % of control
[8]; FAK aa2-1052, 1.0E-06 M
  Residual activity: 106 % of control
[8]; FAK aa2-1052, 1.0E-07 M
  Residual activity: 138 % of control
[9]; 1.0E-06 M
  Residual activity: 92 % of control
[9]; 1.0E-07 M
  Residual activity: 96 % of control
[10]; MKK4, 1.0E-06 M
  Residual activity: 93 % of control
[10]; MKK4, 1.0E-07 M
  Residual activity: 87 % of control

## C#Cc1cc(Nc2ncnc3cc(OC)c(OC)cc23)ccc1Cl [Compound 45]
[1]; CLK1, 1.0E-06 M
  Residual activity: 79 % of control
[1]; CLK1, 1.0E-07 M
  Residual activity: 102 % of control
[2]; assay conc. 1.0E-06 M
  Residual activity, RPS6KA2: 86 % of control
[2]; assay conc. 1.0E-07 M
  Residual activity, RPS6KA2: 100 % of control
[3]; CDK5/p25NCK, 1.0E-06 M
  Residual activity: 103 % of control
[3]; CDK5/p25NCK, 1.0E-07 M
  Residual activity: 98 % of control
[3]; CDK5/p35NCK, 1.0E-06 M
  Residual activity: 88 % of control
[3]; CDK5/p35NCK, 1.0E-07 M
  Residual activity: 88 % of control
[4]; 1.0E-06 M
  Residual activity: 97 % of control
[4]; 1.0E-07 M
  Residual activity: 104 % of control
[5]; assay conc. 1.0E-06 M
  Residual activity, STK17A: 83 % of control
[5]; assay conc. 1.0E-07 M
  Residual activity, STK17A: 102 % of control
[6]; assay conc. 1.0E-06 M
  Residual activity, SNK: 87 % of control
[6]; assay conc. 1.0E-07 M
  Residual activity, SNK: 99 % of control
[7]; BRSK1, 1.0E-06 M
  Residual activity: 97 % of control
[7]; BRSK1, 1.0E-07 M
  Residual activity: 89 % of control
[8]; FAK aa2-1052, 1.0E-06 M
  Residual activity: 95 % of control
[8]; FAK aa2-1052, 1.0E-07 M
  Residual activity: 109 % of control
[9]; 1.0E-06 M
  Residual activity: 96 % of control
[9]; 1.0E-07 M
  Residual activity: 101 % of control
[10]; MKK4, 1.0E-06 M
  Residual activity: 96 % of control
[10]; MKK4, 1.0E-07 M
  Residual activity: 88 % of control
